As usually defined, the TGI is the concentration giving total growth inhibition.

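All cell lines were grown in 96-well plates and treated with compound for 48 hours. TGI: concentration producing complete growth inhibition.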

Some test systems named below: DU-145 prostate; MDA-N; MALME-3M melanoma; SF-268 CNS; BT-549 breast; CAKI-1 renal; A549 NSCLC; MDA-MB-231 breast; EKVX NSCLC; T-47D breast; HS 578T breast; COLO 205 colon; RXF 393 renal; HCT-116 colon; HOP-92 NSCLC; LOX IMVI melanoma; K-562 leukemia.
Assay in all cases: DTP human tumour cell line panel, 48 h

As for `O=C1NC(N2CCCCC2)=N/C1=C\c1ccc(Cl)cc1`, the total growth inhibition concentration (TGI) in the test on DU-145 prostate, with MDA-N, in the test with MALME-3M melanoma, in the test with SF-268 CNS, in the test with BT-549 breast and in the test on CAKI-1 renal was more than 100 µM each time. The concentration for total growth inhibition (TGI) in the test on A549 NSCLC, with MDA-MB-231 breast, in the test on EKVX NSCLC, in the test with T-47D breast, in the test on HS 578T breast and in the test with COLO 205 colon was more than 100 µM each time. The concentration for total growth inhibition (TGI) in the test on RXF 393 renal is more than 100 µM; in the test with HCT-116 colon, 92.7 µM; in the test on HOP-92 NSCLC, 85.5 µM; in the test on LOX IMVI melanoma, more than 100 µM.
Regarding `OC(c1ccc2c(c1)OCO2)c1ccc2c(c1)OCO2`, the total growth inhibition concentration (TGI) with DU-145 prostate, in the test on MDA-N, in the test with MALME-3M melanoma, with SF-268 CNS, in the test on BT-549 breast and in the test on CAKI-1 renal was more than 100 µM throughout. The TGI in the test with A549 NSCLC, in the test on MDA-MB-231 breast, with EKVX NSCLC, with T-47D breast, in the test with HS 578T breast and with COLO 205 colon was more than 100 µM in each case. The TGI in the test with HCT-116 colon, in the test with HOP-92 NSCLC, in the test with K-562 leukemia and in the test with LOX IMVI melanoma was more than 100 µM each time.
In the case of `CC(=O)OCC(C)(COC(C)=O)N1C(=O)C2C3c4ccccc4C(c4ccccc43)C2C1=O` (stereo not given), the TGI in the test on DU-145 prostate, with MDA-N, in the test on SF-268 CNS, in the test with BT-549 breast, in the test with CAKI-1 renal and with A549 NSCLC was more than 100 µM each time. Moreover, the TGI in the test with MDA-MB-231 breast, with EKVX NSCLC, in the test on T-47D breast, in the test with HS 578T breast, with COLO 205 colon and in the test with RXF 393 renal was more than 100 µM in each case. Also, the TGI in the test on HCT-116 colon, in the test with HOP-92 NSCLC, with K-562 leukemia and in the test on LOX IMVI melanoma was more than 100 µM each time.
As for `N#CC(C#N)N=Nc1ccc(-c2nc3ccccc3o2)cc1`, the TGI in the test with DU-145 prostate is 31.5 µM; in the test with MDA-N it was 45.2 µM; in the test on MALME-3M melanoma, more than 100 µM; in the test on SF-268 CNS, more than 100 µM; in the test on BT-549 breast it was 31.8 µM; in the test with A549 NSCLC, 47.6 µM. Moreover, the TGI is 61.7 µM with MDA-MB-231 breast; 29.9 µM in the test on EKVX NSCLC; 25.2 µM in the test on T-47D breast; more than 100 µM with HS 578T breast; 23.9 µM in the test with COLO 205 colon; 19.5 µM in the test on HCT-116 colon. Also, the concentration for total growth inhibition (TGI) is more than 100 µM in the test on HOP-92 NSCLC, 54.7 µM in the test with K-562 leukemia and 29 µM with LOX IMVI melanoma.
Regarding `COc1ccc(NC(C)=O)c(C(O)CCNC(C)=O)c1` (stereo not given), the total growth inhibition concentration (TGI) in the test on DU-145 prostate, in the test on MDA-N, in the test with SF-268 CNS, in the test on BT-549 breast, in the test with CAKI-1 renal and with A549 NSCLC was more than 100 µM in each case. The TGI with MDA-MB-231 breast, in the test with EKVX NSCLC, in the test on T-47D breast, in the test with HS 578T breast, with COLO 205 colon and in the test on RXF 393 renal was more than 100 µM throughout. The TGI in the test on HCT-116 colon, with HOP-92 NSCLC and with LOX IMVI melanoma was more than 100 µM throughout.
For the compound `CSC1=NNC(SC)=NN1`, the total growth inhibition concentration (TGI) in the test on DU-145 prostate was 0.345 µM; in the test on MDA-N, 0.319 µM; in the test with MALME-3M melanoma, 0.289 µM; in the test with SF-268 CNS, 0.351 µM; in the test with BT-549 breast, 0.348 µM; in the test on CAKI-1 renal, 0.311 µM. Further, the concentration for total growth inhibition (TGI) with A549 NSCLC was 0.406 µM; with MDA-MB-231 breast, 0.458 µM; with EKVX NSCLC it was 0.327 µM; in the test on T-47D breast, 0.33 µM; with HS 578T breast, 0.38 µM; with COLO 205 colon it was 0.413 µM. For the same compound, the TGI with HCT-116 colon was found to be 0.303 µM; in the test with HOP-92 NSCLC, 0.316 µM; in the test with K-562 leukemia it was 0.308 µM; with LOX IMVI melanoma it was 0.287 µM.
Consider `C=C1C(=O)OC2C3C(=C)[C@@H](OC(C)=O)CC3C(C)=CC(OC(=O)C(C)(OC(C)=O)C(C)OC(C)=O)[C@@H]12` (stereo not given in full), for which the TGI was determined as 30.5 µM with DU-145 prostate; 30.1 µM with MDA-N; 26.5 µM with MALME-3M melanoma; 51.1 µM in the test on SF-268 CNS; 33 µM in the test with BT-549 breast; 23.2 µM in the test with CAKI-1 renal. Further, the total growth inhibition concentration (TGI) was 70.4 µM in the test with A549 NSCLC; 32.7 µM with MDA-MB-231 breast; 30.9 µM in the test with EKVX NSCLC; 40.5 µM in the test on T-47D breast; more than 100 µM in the test on HS 578T breast; 28.2 µM in the test with COLO 205 colon. In addition, the concentration for total growth inhibition (TGI) in the test on RXF 393 renal came out at 31.7 µM; in the test on HCT-116 colon it was 23.8 µM; in the test with K-562 leukemia it was 32.6 µM; in the test on LOX IMVI melanoma, 27.3 µM.
For the compound `CN(C)c1ccc(C2CC(c3ccc4ccccc4c3O)=NN2c2ccc([N+](=O)[O-])cc2[N+](=O)[O-])cc1` (stereo not given), the TGI is more than 100 µM in the test on DU-145 prostate; 30.5 µM with MDA-N; more than 100 µM in the test with MALME-3M melanoma; more than 100 µM in the test with SF-268 CNS; more than 100 µM with BT-549 breast; more than 100 µM in the test with CAKI-1 renal. Also, the TGI in the test with A549 NSCLC, in the test with MDA-MB-231 breast, in the test on T-47D breast, with HS 578T breast, in the test on COLO 205 colon and in the test with RXF 393 renal was more than 100 µM each time. The total growth inhibition concentration (TGI) in the test on HCT-116 colon and in the test on HOP-92 NSCLC was more than 100 µM each time.
`CC(=O)OCC1OC(O[C@@H]2C[C@H]3C(C)(C)[C@@H](OC(C)=O)CC[C@]3(C)[C@H]3CC[C@]45C[C@]4(CC[C@H]5[C@@H](C)C[C@@H](O)[C@H](O)C(C)(C)F)[C@@]32C)C(O)C(O)C1O` (stereo not given in full): the TGI was more than 100 µM with DU-145 prostate; 3.09 µM with MDA-N; 3.48 µM in the test on MALME-3M melanoma; 3.05 µM in the test on SF-268 CNS; 3.4 µM in the test on BT-549 breast; more than 100 µM with CAKI-1 renal. Moreover, the TGI was 3.12 µM with A549 NSCLC; 48.2 µM in the test with MDA-MB-231 breast; 3.21 µM with EKVX NSCLC; more than 100 µM in the test on T-47D breast; 5.85 µM with HS 578T breast; 3.38 µM in the test with COLO 205 colon. Further, the TGI was more than 100 µM in the test with RXF 393 renal, 2.95 µM in the test on HCT-116 colon, 3.71 µM with HOP-92 NSCLC and 4.33 µM with LOX IMVI melanoma.
